According to the NIST ThermoML archive (doi:10.1016/j.jct.2016.07.038):
± gives the expanded uncertainty stated by the source.

What was measured:
[1] = Crystal; for Normal melting temperature: DTA
[2] = molar heat capacity at constant pressure; conditions: 298.15 K; 101.33 kPa; Crystal; Small sample (50 mg) DSC
[3] = Molar enthalpy of transition or fusion; conditions: Crystal; DSC

Row | Compound | mass density ([1]; 298.15 K, 101.33 kPa, measuring the mass and volume of a pellet of the compound) [kg/m3] | Normal melting temperature [1] [°C] | molar heat capacity at constant pressure [2] [J/K/mol] | Molar enthalpy of transition or fusion [3] [kcal/mol]
1 | CC(=O)N1CCOC1=O [3-acetyl-2-oxazolidinone] | 1230 ± 60 | 69.8 ± 0.6 | 164.7 ± 3.5 | 3.67 ± 0.124
2 | O=C1NCCO1 [2-oxazolidone] | – | 90 ± 0.4 | 113.8 ± 3.5 | 3.89 ± 0.139
